Here are results for two compounds from ChEMBL document CHEMBL5537180, “Discovery of Novel Aminobutanoic Acid-Based ASCT2 Inhibitors for the Treatment of Non-Small-Cell Lung Cancer” (J Med Chem, 2024).

In data set [1] the test system is A549. The data set can be described thus: Induction of apoptosis in human A549 cells assessed as necrotic cells at 5 uM measured after 24 hrs by annexin-V/PI staining based flow cytometry analysis (reference value: 0.13%). In kind it is functional. (In flow cytometry, cells or beads pass a laser one at a time.)
Data set [2] has as its system Cell membrane. Briefly: Induction of mitochondrial membrane potential loss in human A549 cells assessed as […] aggregates at 5 uM incubated for 24 hrs by JC-1 staining based flow cytometry analysis (reference value: 93.8%). In kind it is cell membranes.
In data set [3] the target is T1, Sodium-coupled neutral amino acid symporter 1 (Homo sapiens) (UniProt Q9H2H9).
T1 sequence (whole entry): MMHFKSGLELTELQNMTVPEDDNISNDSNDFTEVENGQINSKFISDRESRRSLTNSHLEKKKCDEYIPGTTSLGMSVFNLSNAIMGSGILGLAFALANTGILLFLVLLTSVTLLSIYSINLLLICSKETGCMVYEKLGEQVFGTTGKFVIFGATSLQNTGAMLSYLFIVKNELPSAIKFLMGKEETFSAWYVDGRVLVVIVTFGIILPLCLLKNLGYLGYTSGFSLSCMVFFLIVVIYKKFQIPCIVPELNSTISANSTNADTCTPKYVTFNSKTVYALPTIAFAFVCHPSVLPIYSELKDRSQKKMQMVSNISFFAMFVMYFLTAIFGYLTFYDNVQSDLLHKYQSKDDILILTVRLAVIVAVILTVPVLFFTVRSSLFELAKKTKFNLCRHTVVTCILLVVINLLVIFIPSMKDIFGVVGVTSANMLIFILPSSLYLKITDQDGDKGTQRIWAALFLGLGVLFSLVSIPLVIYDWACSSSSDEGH
Briefly: Inhibition of SNAT1 (unknown origin) overexpressed in human A549 cells assessed as reduction in [13C]-Gln uptake preincubated for 5 mins followed by substrate addition and measured after 15 mins. In kind it is cell-based. The settings on record: time 20.0 min.

The test system of data set [4] is A549. The data set can be described thus: Induction of apoptosis in human A549 cells assessed as viable cells at 10 uM measured after 24 hrs by annexin-V/PI staining based flow cytometry analysis (reference value: 97.0%). In kind it is functional. Particulars: read-out: Activity.
Data set [5] deals with A549. The data set can be described thus: Induction of apoptosis in human A549 cells assessed as late apoptotic cells at 10 uM measured after 24 hrs by annexin-V/PI staining based flow cytometry analysis (reference value: 1.34%). In kind it is functional.
The nature of data set [6]: Bioavailability in Sprague-Dawley rat at 10 mg/kg, ip incubated for 24 hrs by LC-MS/MS analysis. In kind it is ADME, organism-based. The settings on record: in vivo.
Data set [7] can be described thus: Toxicity in BALB/c nude mouse assessed as effect on liver at 25 to 50 mg/kg, ip measured after 3 weeks by H and E staining based analysis. In kind it is organism-based. Particulars: in vivo, 504 h, dose 25-50 mg/kg.
The test system of data set [8] is A549. The data set can be described thus: Induction of apoptosis in human A549 cells assessed as viable cells at 5 uM measured after 24 hrs by annexin-V/PI staining based flow cytometry analysis (reference value: 97.0%). In kind it is functional. The settings on record: read-out: Activity.
Data set [9] has as its system A549. The data set can be described thus: Inhibition of Gln uptake in human A549 cells assessed as reduction in citrate level incubated for 24 hrs by LC-MS/MS analysis. In kind it is functional, cell-based.
For data set [10], the system named is A549. Briefly: Inhibition of colony formation in human A549 cells measured after 7 to 10 days by crystal violet staining analysis. The settings on record: dose 5-10 µM, time 7-10 day. In kind it is functional, cell-based.
Data set [11] deals with A549. The data set can be described thus: Induction of apoptosis in human A549 cells assessed as necrotic cells at 10 uM measured after 24 hrs by annexin-V/PI staining based flow cytometry analysis (reference value: 0.13%). In kind it is functional.
The subject of data set [12] is A549. Briefly: Inhibition of AKT/mTORC signalling in human A549 cells assessed as decrease in p70S6K level at 5 to 10 uM measured after 24 hrs by Western blot analysis. In kind it is cell-based. Particulars: dose 5-10 µM.
Data set [13] relates to A549. Briefly: Induction of apoptosis in human A549 cells assessed as caspase 9 activation at 5 to 10 uM incubated for 24 hrs by Western blot analysis. In kind it is functional, cell-based. Particulars: dose 5-10 µM. Background: Immunoblotting shows a protein as a band on a membrane.
Data set [14] concerns A549. Briefly: Induction of apoptosis in human A549 cells assessed as late apoptotic cells at 5 uM measured after 24 hrs by annexin-V/PI staining based flow cytometry analysis (reference value: 1.34%). In kind it is functional.
The test system of data set [15] is A549. Briefly: Induction of apoptosis in human A549 cells assessed as early apoptotic cells at 10 uM measured after 24 hrs by annexin-V/PI staining based flow cytometry analysis (reference value: 1.56%). In kind it is functional.
The subject of data set [16] is A549. Briefly: Induction of apoptosis in human A549 cells assessed as early apoptotic cells at 5 uM measured after 24 hrs by annexin-V/PI staining based flow cytometry analysis (reference value: 1.56%). In kind it is functional.

One may read the bioavailability as the share of a dose that reaches the circulation, judged against a reference dose that is usually intravenous. A high value points to much systemic uptake.

Activity calls are given as the source filed them. The calls are words filed in the database; no cut-off is given here.

Turning to `N[C@@H](CCN(Cc1ccccc1OCC#Cc1ccc(Cl)cc1)Cc1ccccc1OCC#Cc1ccc(Cl)cc1)C(=O)O`, the Activity in data set [1] is 0.79%; in data set [2] it was 87.8%; in [5], 7.29%; in data set [7], “Toxic”; in data set [11], 1.4%; in data set [14], 6.44%. Further, the Activity is recorded as 6.93% in data set [15] and 2.47% in data set [16]. For the same compound, the inhibition entry in [3], in data set [9] and in data set [12] was “Active” each time. Also, the viability at 10 µM in [4] turned out to be 84.4%. Further, the bioavailability in data set [6] is 77%. Besides, in data set [8], the viability at 5 µM worked out at 90.3%. Also, the inhibition entry in data set [10] is “Dose-Dependent Effect”. The outcome in [13] was Active.
As for `CC(C)(C)c1ccc(OCC#Cc2ccccc2)c(CN(CC[C@H](N)C(=O)O)Cc2cc(C(C)(C)C)ccc2OCC#Cc2ccccc2)c1`, the figures for the Activity in data set [2] and in data set [7] were 76.1% and “Toxic”, respectively. In addition, the inhibition entry in data set [9] and in data set [12] was “Active” in each case. In addition, in data set [10], the inhibition entry was “Dose-Dependent Effect”. For the same compound, the result in data set [13] was Active.
